Assay results from patent US20230089073A1 (Carmot Therapeutics, Inc., priority 2021, published 2023).

Target: T1, human GLP-1 receptor (Homo sapiens, UniProt P43220)
T1 construct: expressed in transfected cells
Test: GLP-1R cAMP Assay
Type: cell-based
Settings: cAMP accumulation in CHO cells stably overexpressing the human GLP-1 receptor; 30 min treatment; HitHunter cAMP kit; read-out: EC50
How it was run: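 Luminescent enzyme-complementation detection of cAMP, read after cell lysis and overnight incubation, with dose-response curve fitting. Stimulation lasted 30 min, using 20-point triplicate dosing on CHO cells (10,000 per well) stably overexpressing human GLP-1R.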

T1 sequence (P43220 24-463): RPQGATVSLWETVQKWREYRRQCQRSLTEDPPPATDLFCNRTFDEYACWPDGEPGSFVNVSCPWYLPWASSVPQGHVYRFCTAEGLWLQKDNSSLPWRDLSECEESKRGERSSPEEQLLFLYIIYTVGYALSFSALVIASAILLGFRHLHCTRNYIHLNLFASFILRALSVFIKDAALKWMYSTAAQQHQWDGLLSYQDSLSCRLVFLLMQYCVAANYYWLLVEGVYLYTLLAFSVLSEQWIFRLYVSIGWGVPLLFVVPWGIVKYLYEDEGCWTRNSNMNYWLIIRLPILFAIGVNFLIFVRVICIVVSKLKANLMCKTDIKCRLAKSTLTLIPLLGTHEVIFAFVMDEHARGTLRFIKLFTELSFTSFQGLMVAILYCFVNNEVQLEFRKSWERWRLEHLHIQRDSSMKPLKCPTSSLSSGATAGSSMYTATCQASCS

Compound	EC50 [µM]
Cc1ccc(N(C)c2cncc(C(=O)N3CCN(Cc4nc5ccc(C(=O)O)cc5n4C[C@@H]4CCO4)CC3)c2)c(Cl)c1 [Compound 85, 2-[(4-{5-[(2-chloro-4-methylphenyl)(methyl)amino]pyridine-3-carbonyl}piperazin-1-yl)methyl]-1-{[(2S)-oxetan-2-yl]methyl}-1H-1,3-benzodiazole-6-carboxylic acid]	0.05 to 0.5
Cc1ccc(N(C)c2cccc(S(=O)(=O)N3CCN(Cc4nc5ccc(C(=O)O)cc5n4C[C@@H]4CCO4)CC3)c2)c(Cl)c1 [Compound 86, 2-[(4-{3-[(2-chloro-4-methylphenyl)(methyl)amino]benzenesulfonyl}piperazin-1-yl)methyl]-1-{[(2S)-oxetan-2-yl]methyl}-1H-1,3-benzodiazole-6-carboxylic acid]	> 0.5
Cc1ccc(N(C)c2cccc(C(=O)N3CC4CCC(C3)N4Cc3nc4ccc(C(=O)O)cc4n3C[C@@H]3CCO3)c2)c(Cl)c1 [Compound 87, 2-[(3-{3-[(2-chloro-4-methylphenyl)(methyl)amino]benzoyl}-3,8-diazabicyclo[3,2.1]octan-8-yl)methyl]-1-{[(2S)-oxetan-2-yl]methyl}-1H-1,3-benzodiazole-6-carboxylic acid]	0.05 to 0.5
Cc1ccc(N(C)c2ccc(C3CC3)c(C(=O)N3CCN(Cc4nc5ccc(C(=O)O)cc5n4C[C@@H]4CCO4)CC3)c2)c(Cl)c1 [Compound 93, 2-[(4-{5-[(2-chloro-4-methylphenyl)(methyl)amino]-2-cyclopropylbenzoyl}piperazin-1-yl)methyl]-1-{[(2S)-oxetan-2-yl]methyl}-1H-1,3-benzodiazole-6-carboxylic acid]	0.05 to 0.5
Cc1ccc(N(C)c2ccc(F)c(C(=O)N3CCN(Cc4nc5ccc(C(=O)O)cc5n4C[C@@H]4CCO4)CC3)c2)c(Cl)c1 [Compound 98, 2-[(4-{5-[(2-chloro-4-methylphenyl)(methyl)amino]-2-fluorobenzoyl}piperazin-1-yl)methyl]-1-{[(2S)-oxetan-2-yl]methyl}-1H-1,3-benzodiazole-6-carboxylic acid]	< 0.05
Cc1ccc(N(C)c2cccc(C(=O)N3CCN(Cc4nc5ccc(C(=O)O)cc5n4C[C@@H]4CCO4)CC3)n2)c(Cl)c1 [Compound 101, 2-[(4-{6-[(2-chloro-4-methylphenyl)(methyl)amino]pyridine-2-carbonyl}piperazin-1-yl)methyl]-1-{[(2S)-oxetan-2-yl]methyl}-1H-1,3-benzodiazole-6-carboxylic acid]	0.05 to 0.5
CCn1cncc1Cn1c(CN2CCC(Cc3cccc(COc4ccc(Cl)cc4Cl)c3)CC2)nc2ccc(C(=O)O)cc21 [Compound 104, 2-{[4-({3-[(2,4-dichlorophenoxy)methyl]phenyl}methyl)piperidin-1-yl]methyl}-1-[(1-ethyl-1H-imidazol-5-yl)methyl]-1H-1,3-benzodiazole-6-carboxylic acid]	< 0.05
CCn1cncc1Cn1c(CN2CCC(Cc3ccc(COc4ccc(Cl)cc4Cl)o3)CC2)nc2ccc(C(=O)O)cc21 [Compound 109, 2-{[4-({5-[(2,4-dichlorophenoxy)methyl]furan-2-yl}methyl)piperidin-1-yl]methyl}-1-[(1-ethyl-1H-imidazol-5-yl)methyl]-1H-1,3-benzodiazole-6-carboxylic acid]	< 0.05
CCn1cncc1Cn1c(CN2CCC(Cc3cccc(COc4ccc(C)cc4Cl)n3)CC2)nc2ccc(C(=O)O)cc21 [Compound 120, 2-{[4-({6-[(2-chloro-4-methylphenoxy)methyl]pyridin-2-yl}methyl)piperidin-1-yl]methyl}-1-[(1-ethyl-1H-imidazol-5-yl)methyl]-1H-1,3-benzodiazole-6-carboxylic acid]	< 0.05
Cc1ccc(OCc2ccc(F)c(CC3CCN(Cc4nc5ccc(C(=O)O)cc5n4C[C@@H]4CCO4)CC3)n2)c(Cl)c1 [Compound 123, 2-{[4-({6-[(2-chloro-4-methylphenoxy)methyl]-3-fluoropyridin-2-yl}methyl)piperidin-1-yl]methyl}-1-{[(2S)-oxetan-2-yl]methyl}-1H-1,3-benzodiazole-6-carboxylic acid]	< 0.05

The remaining lines, values ahead:

EC50 [µM]	Compound
> 0.5	Cc1ccc(NCc2cccc(C(=O)N3CCN(Cc4nc5ccc(C(=O)O)cc5n4C[C@@H]4CCO4)CC3)c2)c(Cl)c1 [Compound 80, 2-{[4-(3-{[(2-chloro-4-methylphenyl)amino]methyl}benzoyl)piperazin-1-yl]methyl}-1-{[(2S)-oxetan-2-yl]methyl}-1H-1,3-benzodiazole-6-carboxylic acid]
0.05 to 0.5	O=C(O)c1ccc2nc(CN3CCN(C(=O)c4ccc(COc5ccc(C6CC6)cc5Cl)o4)CC3)n(C[C@@H]3CCO3)c2c1 [Compound 81, 2-[(4-{5-[(2-chloro-4-cyclopropylphenoxy)methyl]furan-2-carbonyl}piperazin-1-yl)methyl]-1-{[(2S)-oxetan-2-yl]methyl}-1H-1,3-benzodiazole-6-carboxylic acid]
> 0.5	N#Cc1ccc(COc2cccc(C3CCN(C(=O)c4ccc(-c5nnn[nH]5)cn4)CC3)n2)c(F)c1 [Compound 82, 3-fluoro-4-{[(6-{1-[5-(1H-1,2,3,4-tetrazol-5-yl)pyridine-2-carbonyl]piperidin-4-yl}pyridin-2-yl)oxy]methyl}benzonitrile]
< 0.05	O=C(O)c1ccc2nc(CN3CC=C(Cc4ccc(COc5ccc(Cl)cc5Cl)o4)CC3)n(C[C@@H]3CCO3)c2c1 [Compound 84, 2-{[4-({5-[(2,4-dichlorophenoxy)methyl]furan-2-yl}methyl)-1,2,3,6-tetrahydropyridin-1-yl]methyl}-1-{[(2S)-oxetan-2-yl]methyl}-1H-1,3-benzodiazole-6-carboxylic acid]
> 0.5	Cc1ccc(N(C)c2ccnc(C(=O)N3CCN(Cc4nc5ccc(C(=O)O)cc5n4C[C@@H]4CCO4)CC3)c2)c(Cl)c1 [Compound 88, 2-[(4-{4-[(2-chloro-4-methylphenyl)(methyl)amino]pyridine-2-carbonyl}piperazin-1-yl)methyl]-1-{[(2S)-oxetan-2-yl]methyl}-1H-1,3-benzodiazole-6-carboxylic acid]
> 0.5	O=C(c1ccc(-c2nnn[nH]2)nc1)N1CCN(Cc2ccc(COc3ccc(Cl)cc3Cl)o2)CC1 [Compound 97, 1-({5-[(2,4-dichlorophenoxy)methyl]furan-2-yl}methyl)-4-[6-(1H-1,2,3,4-tetrazol-5-yl)pyridine-3-carbonyl]piperazine]
< 0.05	Cc1ccc(N(C)c2cc(F)cc(C(=O)N3CCN(Cc4nc5ccc(C(=O)O)cc5n4C[C@@H]4CCO4)CC3)c2)c(Cl)c1 [Compound 100, 2-[(4-{3-[(2-chloro-4-methylphenyl)(methyl)amino]-5-fluorobenzoyl}piperazin-1-yl)methyl]-1-{[(2S)-oxetan-2-yl]methyl}-1H-1,3-benzodiazole-6-carboxylic acid]
< 0.05	O=C(O)c1ccc2nc(CN3CCC(Cc4cccc(COc5ccc(Cl)cc5Cl)c4)CC3)n(C[C@@H]3CCO3)c2c1 [Compound 103, 2-{[4-({3-[(2,4-dichlorophenoxy)methyl]phenyl}methyl)piperidin-1-yl]methyl}-1-{[(2S)-oxetan-2-yl]methyl}-1H-1,3-benzodiazole-6-carboxylic acid]
> 0.5	O=C(c1ccc(-c2nnn[nH]2)nc1)N1CCC(Cc2ccc(COc3ccc(Cl)cc3Cl)o2)CC1 [Compound 107, 5-[4-({5-[(2,4-dichlorophenoxy)methyl]furan-2-yl}methyl)piperidine-1-carbonyl]-2-(1H-1,2,3,4-tetrazol-5-yl)pyridine]
< 0.05	CCn1cncc1Cn1c(CN2CCC(Cc3ccc(COc4ccc(Cl)cc4Cl)o3)CC2)nc2ccc(C(=O)O)nc21 [Compound 108, 2-{[4-({5-[(2,4-dichlorophenoxy)methyl]furan-2-yl}methyl)piperidin-1-yl]methyl}-3-[(1-ethyl-1H-imidazol-5-yl)methyl]-3H-imidazo[4,5-b]pyridine-5-carboxylic acid]
> 0.5	O=C(O)c1ccc2nc(CN3CCN(C(=O)c4ncc(COc5ccc(Cl)cc5Cl)o4)CC3)n(C[C@@H]3CCO3)c2c1 [Compound 113, 2-[(4-{5-[(2,4-dichlorophenoxy)methyl]-1,3-oxazole-2-carbonyl}piperazin-1-yl)methyl]-1-{[(2S)-oxetan-2-yl]methyl}-1H-1,3-benzodiazole-6-carboxylic acid]
0.05 to 0.5	Cc1ccc(N(C)c2cccc(CC3=CCN(Cc4nc5ccc(C(=O)O)cc5n4C[C@@H]4CCO4)CC3)c2)c(Cl)c1 [Compound 117, 2-{[4-({3-[(2-chloro-4-methylphenyl)(methyl)amino]phenyl}methyl)-1,2,3,6-tetrahydropyridin-1-yl]methyl}-1-{[(2S)-oxetan-2-yl]methyl}-1H-1,3-benzodiazole-6-carboxylic acid]
< 0.05	Cc1ccc(OCc2cccc(CC3CCN(Cc4nc5ccc(C(=O)O)cc5n4C[C@@H]4CCO4)CC3)n2)c(Cl)c1 [Compound 118, 2-{[4-({6-[(2-chloro-4-methylphenoxy)methyl]pyridin-2-yl}methyl)piperidin-1-yl]methyl}-1-{[(2S)-oxetan-2-yl]methyl}-1H-1,3-benzodiazole-6-carboxylic acid]
< 0.05	CN(c1cccc(C(=O)N2CCN(Cc3nc4ccc(C(=O)O)cc4n3C[C@@H]3CCO3)CC2)c1)c1ccc(C2CC2)cc1Cl [Compound 122, 2-[(4-{3-[(2-chloro-4-cyclopropylphenyl)(methyl)amino]benzoyl}piperazin-1-yl)methyl]-1-{[(2S)-oxetan-2-yl]methyl}-1H-1,3-benzodiazole-6-carboxylic acid]
< 0.05	CCn1cncc1Cn1c(CN2CCC(Cc3cnc(COc4ccc(Cl)cc4Cl)o3)CC2)nc2ccc(C(=O)O)cc21 [Compound 124, 2-{[4-({2-[(2,4-dichlorophenoxy)methyl]-1,3-oxazol-5-yl}methyl)piperidin-1-yl]methyl}-1-[(1-ethyl-1H-imidazol-5-yl)methyl]-1H-1,3-benzodiazole-6-carboxylic acid]
